pIC50: −log10 of the molar value.

This experiment deals with recombinant human HDACs. The experiment can be described thus: HDAC enzymatic assay (LabChip capillary electrophoresis). Type of experiment: biochemical. Conditions: 5 nM HDAC enzyme, 1 uM substrate, 5 hours pre-incubation, 17 hours reaction at 25°C; isoform not given. The method, then:
All recombinant human HDACs were purchased from BPS Bioscience. The substrate, FAM-TSRHK(AC)KL-CONH, was synthesized at NanoSyn. Final assay reactions contained 100 mM HEPES (pH 7.5), 50 mM KCl, 0.1% BSA, 0.01% Triton X-100, 1% DMSO, 1 uM substrate and 5 nM HDAC enzyme. Enzyme and compounds were pre-incubated at 25°C for 5 hours and reactions were initiated by addition of substrate. 10 uL reactions were incubated for 17 hours at 25°C and terminated by the addition of 40 uL of buffer containing 100 mM HEPES (pH 7.5), 0.1% BSA, 0.01% Triton X-100 and 0.05% SDS. Substrate and product peptides present in each sample were separated electrophoretically using the LabChip 3000 capillary electrophoresis instrument. Change in the relative fluorescence intensity of the substrate and product peaks reflects enzyme activity. Reaction progress was determined as the product to sum ratio (PSR): P/(S+P), where P is the peak height of the product peptide and S is the peak height of the substrate peptide. Reactions were performed in duplicate at 12 concentrations, (3X serial dilutions starting at 30 uM). IC50 values were calculated using a 4 Parameter Logistic Model.
Regarding `Nc1ccc(-c2ccc(F)cc2)nc1NC(=O)N1CCN(C(=O)[C@@H]2C[C@H]2c2ccccc2)CC1` (stereo in doubt) [Compound 225], the pIC50 is 5.30 to 6.30.

Consider `Nc1ccc(-c2ccc(F)cc2)nc1NC(=O)[C@H]1[C@@H]2CN(C3COC3)C[C@@H]21` (stereo in doubt) [Compound 239], for which the pIC50 is less than 5.30.

With `CN1CC(N2C[C@@H]3[C@H](C2)[C@H]3C(=O)Nc2nc(-c3ccc(F)cc3)ccc2N)C1` (stereo in doubt) [Compound 241], the pIC50 was less than 5.30.

Consider `Nc1ccc(-c2ccc(F)cc2)nc1NC(=O)[C@H]1[C@@H]2CN(C3CCOCC3)C[C@@H]21` (stereo in doubt) [Compound 264], for which the pIC50 was less than 5.30.

For the compound `Cn1cc(CN2CCCC3(CCN(C(=O)Nc4nn(-c5ccc(F)cc5)cc4N)C3)C2)cn1` (stereo not shown) [Compound 123], the pIC50 is less than 5.30.

Take `COc1cccc(CN2CCCC3(CCN(C(=O)Nc4nn(-c5ccc(F)cc5)cc4N)C3)C2)c1` (stereo not shown) [Compound 124]: the pIC50 is less than 5.30.

On to `Nc1cn(-c2ccc(F)cc2)nc1NC(=O)N1CCN(C(=O)[C@@H]2C[C@H]2c2ccccc2)CC1` [Compound 125], for which the negative logarithm of the IC50 (pIC50) was 5.30 to 6.30.

With `Cc1cnc(C(=O)Nc2nn(-c3ccccc3)cc2N)s1` [Compound 126], the pIC50 was 5.30 to 6.30.

Turning to `Nc1ccc(-c2ccc(F)cc2)nc1NC(=O)N1CC2CC(N3CCC3)CC2C1` (stereo not shown) [Compound 143], the pIC50 was 5.30 to 6.30.

In the case of `Nc1ccc(-c2ccc(F)cc2)nc1NC(=O)N1Cc2cnc(N3CCC3)cc2C1` [Compound 147], the pIC50 is 6.30 to 7.00.

As for `Nc1ccc(-c2ccc(F)cc2)nc1NC(=O)N1Cc2cnc(N3CCOCC3)cc2C1` [Compound 150], the pIC50 was 6.30 to 7.00.

Regarding `Cc1cc2c(cn1)CN(C(=O)Nc1nc(-c3ccc(F)cc3)ccc1N)C2` [Compound 151], the negative logarithm of the IC50 (pIC50) is 6.30 to 7.00.

In the case of `CN1CC(N2CC3CN(C(=O)Nc4nc(-c5ccc(F)cc5)ccc4N)CC3C2)C1` (stereo not shown) [Compound 152], the pIC50 is 5.30 to 6.30.

In the case of `CN1CCc2sc(C(=O)Nc3nc(-c4ccc(F)cc4)ccc3N)nc2C1` [Compound 153], the pIC50 was 6.30 to 7.00.

On to `Nc1ccc(-c2ccc(F)cc2)nc1NC(=O)N1Cc2cc(N3CCC3)cnc2C1` [Compound 157], for which the negative-log IC50 (pIC50) was 6.30 to 7.00.

With `Nc1ccc(-c2ccc(F)cc2)nc1NC(=O)N1Cc2cc(N3CCOCC3)cnc2C1` [Compound 158], the pIC50 was 6.30 to 7.00.

As for `CN1CCN(c2cc3c(cn2)CN(C(=O)Nc2nc(-c4ccc(F)cc4)ccc2N)C3)CC1` [Compound 160], the pIC50 is 6.30 to 7.00.

`Nc1ccc(-c2cccnc2)nc1NC(=O)c1nc2c(s1)CCN(CCF)C2` [Compound 164]: the pIC50 was 5.30 to 6.30.

For the compound `Nc1ccc(-c2ccc(F)cc2)nc1NC(=O)c1nc2c(s1)CCN(CCF)C2` [Compound 165], the pIC50 was 6.30 to 7.00.

For `CN(C)CCN1CC2CN(C(=O)Nc3nc(-c4ccc(F)cc4)ccc3N)CC2C1` (stereo not shown) [Compound 166], the pIC50 is 5.30 to 6.30.

For `Nc1ccc(-n2cccn2)nc1NC(=O)N1CC2CN(CCF)CC2C1` (stereo not shown) [Compound 167], the pIC50 is less than 5.30.

As for `CN1CCN(Cc2cnc3c(c2)CN(C(=O)Nc2nc(-c4ccc(F)cc4)ccc2N)C3)CC1` [Compound 168], the pIC50 is 6.30 to 7.00.

For `CN1CCC(N2CC3CN(C(=O)Nc4nc(-c5ccc(F)cc5)ccc4N)CC3C2)CC1` (stereo not shown) [Compound 169], the pIC50 was 5.30 to 6.30.

With `Cc1ccc(C2CN(C(=O)Nc3nc(-c4ccc(F)cc4)ccc3N)C2)cc1` [Compound 170], the pIC50 is 5.30 to 6.30.

Turning to `Nc1ccc(-c2cccnc2)nc1NC(=O)N1CCC2(CCCNC2)C1` (stereo not shown) [Compound 171], the pIC50 was less than 5.30.

Consider `Nc1ccc(-c2ccc(F)cc2)nc1NC(=O)N1CC2CC(NC3COC3)CC2C1` (stereo not shown) [Compound 172], for which the pIC50 is 5.30 to 6.30.

In the case of `COc1ccc(-c2ccc(N)c(NC(=O)N3Cc4ccncc4C3)n2)cc1` [Compound 173], the pIC50 was 5.30 to 6.30.

For the compound `Nc1ccc(-c2ccco2)nc1NC(=O)N1CC2CN(CCF)CC2C1` (stereo not shown) [Compound 174], the pIC50 is less than 5.30.

Consider `Nc1ccc(-c2ccco2)nc1NC(=O)N1CC2CN(Cc3ccccc3F)CC2C1` (stereo not shown) [Compound 175], for which the pIC50 was less than 5.30.

On to `Nc1ccc(-c2ccc(F)cc2)nc1NC(=O)N1CC2CN(Cc3ccccc3F)CC2C1` (stereo not shown) [Compound 176], for which the pIC50 is 5.30 to 6.30.

Regarding `Nc1ccc(-n2cccn2)nc1NC(=O)N1CC2CN(Cc3ccccc3F)CC2C1` (stereo not shown) [Compound 177], the pIC50 is less than 5.30.

For `CN1CCN(Cc2cccc3c2CN(C(=O)Nc2nc(-c4ccc(F)cc4)ccc2N)C3)CC1` [Compound 178], the pIC50 was less than 5.30.

Regarding `CN1CCN(C2CC3CN(C(=O)Nc4nc(-c5ccc(F)cc5)ccc4N)CC3C2)CC1` (stereo not shown) [Compound 179], the pIC50 was 5.30 to 6.30.

For the compound `Nc1ccc(-c2ccc(F)cc2)nc1NC(=O)N1CC2CC(N3CCOCC3)CC2C1` (stereo not shown) [Compound 181], the pIC50 was less than 5.30.

Turning to `Nc1ccc(-c2ccco2)nc1NC(=O)N1CC2CN(C3COC3)CC2C1` (stereo not shown) [Compound 182], the pIC50 is less than 5.30.

On to `Nc1ccc(-c2ccc(F)cc2)nc1NC(=O)N1CC2CN(CCF)CC2C1` (stereo not shown) [Compound 183], for which the pIC50 is less than 5.30.

`CN1CC2CN(C(=O)Nc3nc(-n4cccn4)ccc3N)CC2C1` (stereo not shown) [Compound 184]: the pIC50 is less than 5.30.

Regarding `Nc1ccc(-n2cccn2)nc1NC(=O)N1Cc2cc(F)cnc2C1` [Compound 185], the pIC50 was 5.30 to 6.30.

As for `Nc1ccc(-c2ccc(F)cc2)nc1NC(=O)N1Cc2cc(F)cnc2C1` [Compound 186], the pIC50 is 5.30 to 6.30.

`COc1ccc(-c2ccc(N)c(NC(=O)N3Cc4cc(F)cnc4C3)n2)cc1` [Compound 187]: the pIC50 is 5.30 to 6.30.

In the case of `Nc1ccc(-c2ccc(F)cc2)nc1NC(=O)N1CC2CC(N3CC(F)C3)CC2C1` (stereo not shown) [Compound 188], the pIC50 is 5.30 to 6.30.

For the compound `Nc1ccc(-c2ccco2)nc1NC(=O)N1CC2CC(N3CC(F)C3)CC2C1` (stereo not shown) [Compound 189], the pIC50 is less than 5.30.

In the case of `Nc1ccc(-n2cccn2)nc1NC(=O)N1CC2CC(N3CC(F)C3)CC2C1` (stereo not shown) [Compound 190], the pIC50 is less than 5.30.

With `Nc1ccc(-c2ccccc2)nc1NC(=O)N1CC2CC(NC3COC3)CC2C1` (stereo not shown) [Compound 191], the pIC50 was 5.30 to 6.30.

For `Nc1ccc(-c2ccc(F)cc2)nc1NC(=O)C1CN(c2ccccn2)C1` [Compound 192], the pIC50 is less than 5.30.

As to `Nc1ccc(-c2ccco2)nc1NC(=O)C1CN(c2ccccn2)C1` [Compound 193], the pIC50 was less than 5.30.

Consider `Nc1ccc(-c2ccccc2)nc1NC(=O)CN1CCn2cncc2C1` [Compound 194], for which the pIC50 was less than 5.30.

`Nc1ccc(-c2ccccc2)nc1NC(=O)C1CN(c2ccccn2)C1` [Compound 195]: the negative logarithm of the IC50 (pIC50) is less than 5.30.

For the compound `CC(=O)N1CCN(CC(=O)Nc2nc(-c3ccccc3)ccc2N)CC1` [Compound 196], the pIC50 was less than 5.30.

Consider `Nc1ccc(-c2ccccc2)nc1NC(=O)N1CCn2ccnc2C1` [Compound 197], for which the pIC50 is less than 5.30.

For `Nc1ccc(-c2ccco2)nc1NC(=O)C1CN(Cc2ccccc2)C1` [Compound 198], the pIC50 was less than 5.30.

In the case of `Nc1ccc(-c2ccccc2)nc1NC(=O)N1CC2CN(C3COC3)CC2C1` (stereo not shown) [Compound 199], the pIC50 is less than 5.30.

Take `CN1CC2CN(C(=O)Nc3nc(-c4ccc(F)cc4)ccc3N)CC2C1` (stereo not shown) [Compound 201]: the pIC50 is less than 5.30.

`Nc1ccc(-c2ccc(F)cc2)nc1NC(=O)N1CC2CN(C3COC3)CC2C1` (stereo not shown) [Compound 203]: the pIC50 was less than 5.30.

Regarding `CN1CC(C(=O)Nc2nc(-c3ccc(F)cc3)ccc2N)C1` [Compound 204], the pIC50 was less than 5.30.

With `Nc1ccc(-n2cccn2)nc1NC(=O)C1CN(Cc2ccccc2)C1` [Compound 205], the pIC50 is less than 5.30.

Consider `CN1CCn2cc(C(=O)Nc3nc(-c4ccccc4)ccc3N)nc2C1` [Compound 206], for which the pIC50 was 5.30 to 6.30.

In the case of `Nc1ccc(-c2ccccc2)nc1NC(=O)c1cn2c(n1)CNCC2` [Compound 208], the pIC50 was 5.30 to 6.30.

Consider `CN1CCC2(CC1)CCN(C(=O)Nc1nc(-c3cccnc3)ccc1N)C2` [Compound 210], for which the pIC50 was less than 5.30.

`CN1CCCC2(CCN(C(=O)Nc3nc(-c4cccnc4)ccc3N)C2)C1` (stereo not shown) [Compound 211]: the pIC50 is less than 5.30.

With `Nc1ccc(-c2ccccc2)nc1NC(=O)N1CCn2cncc2C1` [Compound 212], the pIC50 is less than 5.30.

As to `Nc1ccc(-c2cccnc2)nc1NC(=O)N1Cc2nccnc2C1` [Compound 214], the pIC50 is 5.30 to 6.30.

As for `Cn1cc(CN2CCC3(CC2)CCN(C(=O)Nc2nc(-c4cccnc4)ccc2N)C3)cn1` [Compound 215], the pIC50 was less than 5.30.

Regarding `Nc1ccc(-c2cccnc2)nc1NC(=O)N1Cc2cc(F)cnc2C1` [Compound 218], the pIC50 is less than 5.30.

As to `Nc1ccc(-c2cccnc2)nc1NC(=O)c1cn2c(n1)CNCC2` [Compound 219], the pIC50 is less than 5.30.

As to `Nc1ccc(-c2cccnc2)nc1NC(=O)N1CC2(CCNCC2)C1` [Compound 220], the pIC50 was less than 5.30.

Take `Nc1ccc(-c2cccnc2)nc1NC(=O)N1CCCC1` [Compound 221]: the pIC50 was less than 5.30.

As for `COc1cccc(CN2CCCC3(CCN(C(=O)Nc4nc(-c5ccc(F)cc5)ccc4N)C3)C2)c1` (stereo not shown) [Compound 222], the pIC50 is less than 5.30.

Turning to `Cn1cc(CN2CCCC3(CCN(C(=O)Nc4nc(-c5ccc(F)cc5)ccc4N)C3)C2)cn1` (stereo not shown) [Compound 223], the pIC50 was less than 5.30.

For `Nc1ccc(-c2ccc(F)cc2)nc1NC(=O)N1CCN2CCCC2C1` (stereo not shown) [Compound 224], the pIC50 was less than 5.30.

For the origin of these results see patent EP3319959B1, “HETERO-HALO INHIBITORS OF HISTONE DEACETYLASE” (Alkermes, Inc., priority 2015, dated 2017).
